Measured values reported in patent publication US20110091387A1, “METHODS AND COMPOSITIONS FOR REDUCING SKIN DAMAGE” (THE GENERAL HOSPITAL CORPORATION, priority 2007, published 2011).
Where a name gives a salt, the structure may show the parent alone.

Test system: RhoE promoter
Experiment: RhoE promoter luc2 luciferase reporter screen for inducers of RhoE expression
Assay type: cell-based
Details: luminescence at 24 hours; for Composite Z value (induction of RhoE expression): Table 1, two replicates per compound; for Composite Z: Table 2, two replicates
Experimental: To isolate compounds that can activate RhoE pathway in keratinocytes and protect against UVB exposure, a robust and sensitive chemical genetics approach was developed for the identification of small molecules that induce RhoE expression. Briefly, a reporter construct was created that included the RhoE promoter operatively linked to the luc2 luciferase reporter gene (FIG. 1A). Stable cell lines were produced that expressed the reporter construct, and the cells were plated in 384 well plates at ˜10,000 cells per well. The library test compounds were added to the plated cells at two replicates per compound, and the cells were incubated with the compounds for 24 hours. Luminescence was measured at 24 hours using a plate reader. The data were analyzed using Spotfire.

SMILES	Composite Z value (induction of RhoE expression)	other results
COc1ccc(-c2cc(=O)c3c(OC(C)=O)cc(OC(C)=O)cc3o2)cc1 [acacetin diacetate]	3.977	–
C=C1C(=O)O[C@@H]2C[C@@]3(C)CCC[C@H](C)C3=C[C@H]12 [Helenine]	2.473	–
COc1ccc(-c2coc3cc(OC(C)=O)cc(OC(C)=O)c3c2=O)cc1 [biochanin a diacetate]	3.6564	–
CC[C@H]1OC(=O)[C@H](C)[C@@H](O[C@H]2C[C@@](C)(OC)[C@@H](O)[C@H](C)O2)[C@H](C)[C@@H](O[C@@H]2O[C@H](C)C[C@H](N(C)C)[C@H]2O)[C@](C)(O)C[C@@H](C)C(=O)[C@H](C)[C@@H](O)[C@]1(C)O [erythromycin stearate, reference compound]	3.1488	–
COc1ccc(-c2coc3cc(OC)ccc3c2=O)cc1 [7,4′-dimethoxyisoflavone]	3.0721	–
COc1cc(-c2coc3cc(O[C@@H]4O[C@H](CO)[C@@H](O)[C@H](O)[C@H]4O)c(OC)c(O)c3c2=O)cc(O)c1OC [Iridin]	2.7194	–
CCN(CC)CCCC(C)Nc1c2ccc(Cl)cc2nc2ccc(OC)cc12 (stereo not shown) [Quinacrine dihydrochloride dihydrate, reference compound]	2.324	–
Cc1ccc2cc3c(ccc4ccccc43)c3c2c1CC3 [3-methylcholanthrene]	2.4062	–
C=C(C)c1cc2cc(C(C)=O)c(O)cc2o1 [Euparin]	2.4662	–
CC(=O)Oc1ccc(-c2cc(=O)c3c(OC(C)=O)cc(OC(C)=O)cc3o2)cc1 [apigenin triacetate]	4.6992	–
C[C@]12CC[C@H]3C(=CCc4cc(O)ccc43)[C@@H]1CCC2=O [Equilin, reference compound]	2.3429	–
Oc1ccc(OCc2ccccc2)cc1 [Monobenzone, reference compound]	2.1629	–
CCCCOC(=O)c1ccc(O)cc1 [Butylparaben]	2.6043	–
O=c1cc(-c2ccc(O)cc2)oc2cc(O)cc(O)c12 [Apigenin]	–	Composite Z: 5.3515; Composite Z (listed as apigenin): 5.8729
COc1ccc(C(=O)/C=C/c2ccccc2)cc1 [4′-methoxychalcone]	3.8036	–
O=C1C[C@@H](c2ccc(O)cc2)Oc2cc(O)cc(O)c21 [Naringenin]	2.3231	–
CC(C)OC(=O)Nc1cccc(Cl)c1 [Chlorpropham]	2.5656	–
COC(=O)Nc1nc2ccc(SC(C)C)cc2[nH]1 [Methiazole]	2.2516	–
COc1ccc(-c2cc(=O)c3ccccc3o2)cc1OC [3′,4′-dimethoxyflavone]	2.21	–
C=CC(C1=CC(=O)C(OC)=CC1=O)c1ccc(O)cc1 (stereo not shown) [dalbergione, 4-methoxy-4′-hydroxy-]	2.3862	–
CC(C)N(C(=O)CCl)c1ccccc1 [Propachlor]	2.8556	–

SMILES	Composite Z value (induction of RhoE expression)	other results
COc1ccc(-c2cc(=O)c3c(OC)cc(OC)cc3o2)cc1 [5,7,4′-trimethoxyflavone]	5.4102	Composite Z: 5.4102
O=c1c2ccccc2[se]n1-c1ccccc1 [Ebselen]	2.3104	–
COc1ccc(C2CC(=O)c3ccc(OC)cc3O2)cc1 (stereo not shown) [liquiritigenin dimethyl ether]	4.6362	–
O=C(/C=C/c1ccccc1)c1ccc(O)cc1 [4′-hydroxychalcone]	2.8467	–
COc1ccccc1-c1cc(=O)c2c(OC)cccc2o1 [5,2′-dimethoxyflavone]	3.0257	–
COc1ccc(CC(=O)c2ccc(O)cc2O)cc1 [Ononetin]	2.6414	–
COc1ccc(-c2coc3cc(O)cc(O)c3c2=O)cc1 [biochanin a]	3.2901	–
COC(=O)C(C)c1ccc(C(=O)c2cccs2)cc1 (stereo not shown) [suprofen methyl ester]	3.2205	–
O=C1c2ccccc2-c2cccc3cccc1c23 [Benzanthrone]	2.735	–
Oc1ccc2c(c1)OC[C@H]1c3cc4c(cc3O[C@@H]21)OCO4 [Maackiain]	2.2116	–
CCCSc1ccc2nc(NC(=O)OC)[nH]c2c1 [Albendazole, reference compound]	3.0534	–
CC1(C)C=Cc2cc3ccc(=O)oc3cc2O1 [Xanthyletin]	2.6831	–
COc1ccc2oc3ccccc3c(=O)c2c1 [2-methoxyxanthone]	3.8383	–
COc1cc(O)c2c(=O)c(O)c(-c3ccc(O)c(O)c3)oc2c1 [Rhamnetin]	2.1577	–
CCOC(=O)C1(O)Oc2cc(OC)cc(OC)c2C(=O)C1c1ccccc1 (stereo not shown) [2-ethoxycarbonyl-2-hydroxy-5,7-dimethoxyisoflavanone]	2.164	–
O=c1c(-c2ccc(O)cc2)coc2cc(O)cc(O)c12 [Genistein]	2.5938	–
COc1cc(OC)c2c(=O)c(-c3ccccc3)coc2c1 [5,7-dimethoxyisoflavone]	3.2977	–
O=c1c2ccccc2oc2ccccc12 [Xanthone]	3.79	–
O=C(Nc1ccccc1)Nc1ccccc1 [Diphenylurea]	3.1382	–
O=c1c2ccccc2oc2ccc(O)cc12 [2-hydroxyxanthone]	2.2158	–
NNc1nncc2ccccc12 [hydralazine hydrochloride, reference compound]	2.3583	–

SMILES	Composite Z value (induction of RhoE expression)	other results
Cl.NNCc1ccccc1 [benzylhydrazine hydrochloride]	2.3759	–
CCN(CC)CCOc1ccc2c(c1)C(=O)c1cc(OCCN(CC)CC)ccc1-2 [Tilorone, reference compound]	3.4862	–
O=c1cc(-c2ccc(O)cc2)oc2cc(O[C@@H]3O[C@H](CO)[C@@H](O)[C@H](O)[C@H]3O)cc(O)c12 [Cosmosiin]	4.8646	–
CNc1ccccc1C(=O)N1CCc2c([nH]c3ccccc23)C1=O [Rhetsinine]	3.357	–
COc1cc(O)c(C(=O)/C=C/c2ccccc2)c(OC)c1 [flavokawain b]	3.604	–
COc1cc(OC)c2c(=O)c(-c3ccc4c(c3)OCO4)coc2c1 [Derrustone]	2.3814	–
CC1=C(/C=C/C(C)=C/C=C/C(C)=C/C(=O)O)C(C)(C)CCC1 [Tretinoin, reference compound]	2.2603	–
COc1ccc(-c2cc(=O)c3c(O)cc(O)cc3o2)cc1 [Acacetin]	3.2375	–
COc1ccc2c(c1)OCC(=Cc1ccc(O)c(O)c1)C2=O [sappanone a 7-methyl ether]	2.4579	–
O=c1cc(-c2ccccc2)oc2cc(O)cc(O)c12 [Chrysin]	–	Composite Z: 5.4731
COc1ccccc1-c1cc(=O)c2cccc(OC)c2o1 [8,2′-dimethoxyflavone]	2.7326	–
CCCOc1ccc2nc(NC(=O)OC)[nH]c2c1 [Oxibendazole, reference compound]	2.2003	–
COc1ccc(-c2cc(=O)c3c(O)cc(O)cc3o2)cc1O [Diosmetin]	4.5672	–
CC(C)C[C@H](NC(=O)OCC1c2ccccc2-c2ccccc21)C(=O)O [n-(9-fluorenylmethoxycarbonyl)-1-leucine]	2.8734	–
O=C(CC(=O)c1ccccc1)c1ccccc1 [Dibenzoylmethane]	3.651	–
COc1cc(OC)c2c(=O)cc(-c3ccccc3)oc2c1 [chrysin dimethyl ether]	3.477	–
c1ccc2[nH]c(-c3cscn3)nc2c1 [Tiabendazole, reference compound]	3.5924	–
O=c1cc(-c2ccc(O)c(O)c2)oc2cc(O)cc(O)c12 [Luteolin]	2.3069	–
COc1ccc2c(=O)c(-c3cc4c(cc3OC)OCO4)coc2c1 [cuneatin methyl ether]	2.23	–
O=c1cc(-c2cc(O)c(O)c(O)c2)oc2cc(O)cc(O)c12 [Hieracin]	3.8448	–
